Experimental data taken from ChEMBL document CHEMBL1212843, “Dual-target-directed 1,3-diphenylurea derivatives: BACE 1 inhibitor and metal chelator against Alzheimer's disease” (Bioorg Med Chem, 2010).

Tests used:
Beta-secretase 1 [1] = biological target: T1, Beta-secretase 1 (Homo sapiens, UniProt P56817); assay: Inhibition of BACE1 by FRET assay; design: concentration or dose not given beside the values; conditions: concentration not given here
Beta-secretase 1 [2] = biological target: T1, Beta-secretase 1; assay: Inhibition of BACE1 at 20 ug/ml by FRET assay

T1 sequence (P56817 whole entry): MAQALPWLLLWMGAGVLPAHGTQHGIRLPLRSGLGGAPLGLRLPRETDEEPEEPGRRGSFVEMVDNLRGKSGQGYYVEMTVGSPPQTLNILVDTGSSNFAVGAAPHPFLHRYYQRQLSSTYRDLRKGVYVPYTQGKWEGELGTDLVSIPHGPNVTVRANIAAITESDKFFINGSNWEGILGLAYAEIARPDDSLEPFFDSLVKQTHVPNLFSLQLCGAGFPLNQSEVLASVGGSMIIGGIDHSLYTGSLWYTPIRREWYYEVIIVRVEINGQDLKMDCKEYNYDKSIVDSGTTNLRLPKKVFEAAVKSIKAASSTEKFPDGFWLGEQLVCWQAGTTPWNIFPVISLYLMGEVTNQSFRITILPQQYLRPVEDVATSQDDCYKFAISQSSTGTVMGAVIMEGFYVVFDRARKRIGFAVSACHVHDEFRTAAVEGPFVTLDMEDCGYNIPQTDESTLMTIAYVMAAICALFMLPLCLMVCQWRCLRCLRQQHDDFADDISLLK

SMILES | inhibition (Beta-secretase 1 [1]) | IC50 (Beta-secretase 1 [2])
O=C(Cc1ccccc1Cl)Nc1cc(Br)ccc1OCCN1CCOCC1 | 36.8% | 
O=C(Cc1ccccc1)Nc1cc(Br)ccc1OCCN1CCOCC1 | 24.5% | 
NCCCCCCNCCOc1ccc(Br)cc1NC(=O)Cc1ccccc1Cl |  | 27.9 µM
NCCCNCCOc1ccc(Br)cc1NC(=O)Cc1ccccc1Cl | 77.9% | > 45.2 µM
O=C(Cc1ccccc1Cl)Nc1cc(Br)ccc1OCCNC1CC1 | 77.1% | 37.6 µM
O=C(Cc1cccc([N+](=O)[O-])c1)Nc1cc(Br)ccc1OCCN1CCOCC1 | 20.3% | 
O=C(Cc1ccccc1Cl)Nc1cc(Br)ccc1OCCNCCCCCO | 67.5% | > 42.5 µM
CCCCCCNCCOc1ccc(Br)cc1NC(=O)Cc1ccccc1Cl | 79.4% | 29.4 µM
O=C(Cc1ccccc1Cl)Nc1cc(Br)ccc1OCCN1CCCCC1 | 61.9% | > 44.2 µM
O=C(Cc1ccccc1Cl)Nc1cc(Br)ccc1OCCNC1CCCCC1 | 87.7% | > 42.8 µM
COc1cccc(CC(=O)Nc2cc(Br)ccc2OCCN2CCOCC2)c1 | 20.9% | 
